The source of these data is patent publication US7470549B2, “Measurement method using biosensor” (FUJIFILM Corporation, priority 2004, dated 2008).

The target of assay [1] is T1, Trypsin (Bos taurus, UniProt P00760).
T1 sequence (P00760 24-246): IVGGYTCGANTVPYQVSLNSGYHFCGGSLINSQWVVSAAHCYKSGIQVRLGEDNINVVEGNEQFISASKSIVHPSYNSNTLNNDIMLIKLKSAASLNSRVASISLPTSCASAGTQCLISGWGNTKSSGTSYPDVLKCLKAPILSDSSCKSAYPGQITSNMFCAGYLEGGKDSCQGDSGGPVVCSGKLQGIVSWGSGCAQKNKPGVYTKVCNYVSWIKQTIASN
The assay is described as follows: SPR measurement of substance binding to trypsin immobilized on hydrogel-coated chip (Examples 1-4). The following applies: for Bond of substance interacting with trypsin (RU): 0.002 mM solution, left at rest 10 minutes, change of resonance signal, hydrogel-coated chip; for Binding to trypsin (in words): comment on Table 1. As for the experimental part: Trypsin (manufactured by Worthington) was immobilized on a measurement chip. Interaction measurement was carried out using a surface plasmon resonance measurement device.
A mixed solution consisting of 1-ethyl-2,3-dimethylaminopropylcarbodiimide (400 mM) and N-hydroxysuccinimide (100 mM) was added to a hydrogel-coated chip, followed by leaving at rest for 20 minute. Thereafter, the resultant product was washed with an HBS-N buffer containing 10 mM CaCl2. Subsequently, trypsin (1 mg/ml, 10 mM CaCl2-containing HBS-N buffer) was added thereto, followed by leaving at rest for 30 minutes. Thereafter, the resultant product was washed with a 10 mM CaCl2-containing HBS-N buffer. The used HBS-N buffer is composed of 0.01 mol/l (pH 7.4) HEPES (N-2-hydroxyethylpiperazine-N′-2-ethanesulfonic acid) and 0.15 mol/l NaCl.
Thereafter, an ethanolamine/HCl solution (1M, pH 8.5) was added to the measurement chip, followed by washing with an HBS-N buffer (manufactured by Biacore), so as to block COOH groups that remained without reacting with trypsin.
By the aforementioned operations, trypsin was immobilized on the surface of the measurement chip via a covalent bond. The amount by which resonance signals (RU value) obtained before the addition of trypsin and after washing it had changed was defined as the immobilized amount of trypsin (RU value).
A measurement chip was washed with an HBS-N buffer. Thereafter, the measurement chip was equipped into a surface plasmon resonance measurement device, and a leupeptin solution (0.002 mM, HBS-N buffer) was added thereto, followed by leaving at rest for 10 minutes. The amount by which resonance signals (RU value) had changed was defined as the amount of leupeptin (manufactured by ICN) binding to trypsin.
A measurement chip was washed with an HBS-N buffer.
A measurement chip was washed with an HBS-N buffer. Thereafter, the measurement chip was equipped into a surface plasmon resonance measurement device, and a chymostatin solution (0.002 mM, HBS-N buffer) was added thereto, followed by leaving at rest for 10 minutes. The amount by which resonance signals (RU value) had changed was defined as the amount of chymostatin (manufactured by ICN) binding to trypsin.
On the technique in general: SPR reads the build-up and loss of mass on a sensor chip optically.

The target in assay [2] is T1, Trypsin. The assay is described as follows: Selection of compounds by affinity: SPR binding to trypsin-immobilized PMMA/PEO sensor chip (Example 6). As to conditions: for Binding amount (RU): left at rest 10 minutes, change of resonance signal, PMMA sensor chip. The procedure: Using the SPR system used for screening shown in FIG. 1, immobilization of a ligand, the binding measurement of compounds, and selection of compounds were carried out.
Thereafter, it was placed in a spin coater (MODEL ASS-303; manufactured by ABLE) and then rotated at 1,000 rpm. 50 μl of a methyl ethyl ketone solution containing polymethyl methacrylate (2 mg/ml) was added dropwise to the center of the cover glass coated with gold via evaporation, and 2 minutes later, the rotation was terminated. The thickness of the membrane was measured by the ellipsometry method (In-Situ Ellipsometer MAUS-101; manufactured by Five Lab). […] This sample is called a PMMA surface chip. This PMMA surface chip was immersed in an NaOH aqueous solution (1 N) at 40° C. for 16 hours, followed by washing with water 3 times. This sample is called a PMMA/COOH surface chip. This PMMA/COOH surface chip was immersed in 2 ml of a mixed solution of 1-ethyl-2,3-dimethylaminopropylcarbodiimide (400 mM) and N-hydroxysuccinimide (100 mM) for 60 minutes. Thereafter, it was immersed in 2 ml of an α-amino-polyethyleneoxy-ω-carboxylic acid (mean molecular weight: 5,000) aqueous solution (10 mM) for 16 hours. The resultant product was finally washed with water 5 times. The thus obtained sensor chip was used in the following operation.
A mixed solution of 1-ethyl-2,3-dimethylaminopropylcarbodiimide (400 mM) and N-hydroxysuccinimide (100 mM) was added to the sensor chip produced in (1) above, followed by leaving at rest for 20 minute. Thereafter, the resultant product was washed with an HBS-N buffer containing 10 mM CaCl2. Subsequently, trypsin (1 mg/ml, 10 mM CaCl2-containing HBS-N buffer) was added thereto, followed by leaving at rest for 30 minutes. Thereafter, the resultant product was washed with a 10 mM CaCl2-containing HBS-N buffer.
Thereafter, an ethanolamine/HCl solution (1M, pH 8.5) was added to the measurement chip, followed by washing with an HBS-N buffer (manufactured by Biacore).
The sensor chip on which trypsin had been immobilized was washed with an HBS-N buffer.

The target of assay [3] is T1, Trypsin. The assay is described as follows: Enzyme activity of immobilized trypsin with Bz-Arg-MCA, fluorescence of decomposed product, same hydrogel chip (Examples 1-4). As to conditions: for Measurement results of fluorescence intensity (120 minutes): 0.002 mM substance, 0.1 mM Bz-Arg-MCA, excitation 380 nm, emission 460 nm, no substance: 580; for Inhibitory action on the enzyme activity of trypsin (in words): comment on Table 1. Type of assay: biochemical. The procedure: Using the chip after the measurement of the amount of leupeptin binding to trypsin described in (2) above, the enzyme activity of trypsin was measured. Specifically, a substrate specific to trypsin (benzoyl-L-arginine-4-methylcoumarin-7-amide (hereinafter referred to as Bz-Arg-MCA); Peptide Institute, Inc.) was allowed to react with trypsin, and fluorescence in the decomposed product was measured.
The HBS-N buffer contained in the measurement chip was removed, and a leupeptin solution (0.002 mM, HBS-N buffer) and 0.1 mM Bz-Arg-MCA were added thereto. The reaction was then carried out for 10, 30, 60, and 120 minutes.
Fluorescence measurement was carried out regarding the reaction for each of the aforementioned reaction times, using the BMGLabTechnologies FLUOstar measurement device (excitation: 380 nm; and emission: 460 nm).
(§1) Specifically, a substrate specific to trypsin (benzoyl-L-arginine-4-methylcoumarin-7-amide (hereinafter referred to as Bz-Arg-MCA); Peptide Institute, Inc.) was allowed to react with trypsin, and fluorescence in the decomposed product was measured.
The reaction was then carried out for 10, 30, 60, and 120 minutes.
Fluorescence measurement was carried out regarding the reaction for each of the aforementioned reaction times, using the BMGLabTechnologies FLUstar measurement device (excitation: […]; and emission: 460 nm).
Using the chip after the measurement of the amount of chymostatin binding to trypsin in (2) above, the enzyme activity of trypsin was measured. Specifically, a substrate specific to trypsin (benzoyl-L-arginine-4-methylcoumarin-7-amide (hereinafter referred to as Bz-Arg-MCA); Peptide Institute, Inc.) was allowed to react with trypsin, and fluorescence in the decomposed product was measured.
The HBS-N buffer contained in the measurement chip was removed, and a chymostatin solution (0.002 mM, HBS-N buffer) and 0.1 mM Bz-Arg-MCA were added thereto. The reaction was then carried out for 10, 30, 60, and 120 minutes.
(§2) Fluorescence measurement was carried out regarding the reaction for each of the aforementioned reaction times, using the BMGLabTechnologies FLUstar measurement device (excitation: 380 nm; and emission: 460 nm).

Assay [4] concerns the target T1, Trypsin. The assay is described as follows: SPR binding to trypsin on PMMA measurement chip, Biacore 3000 (Example 5). The following applies: leupeptin 0.002 mM, 10 minutes. As for the experimental part:
Trypsin (manufactured by Worthington) was immobilized on a PMMA measurement chip. Interaction measurement was carried out using a surface plasmon resonance measurement device (Biacore 3000).
A PMMA measurement chip was equipped into Biacore 3000. A mixed solution of 1-ethyl-2,3-dimethylaminopropylcarbodiimide (400 mM) and N-hydroxysulfosuccinimide (100 mM) was added thereto, followed by reaction for 7 minutes. Thereafter, trypsin (0.05 mg/ml, 10 mM CaCl2-containing HBS-N buffer) was added thereto, followed by reaction for 7 minutes.
Thereafter, an ethanolamine/HCl solution (1M, pH 8.5) was added to the measurement chip, followed by reaction for 7 minutes, so as to block COOH groups that remained without reacting with trypsin.
By the aforementioned operations, trypsin was immobilized on the surface of the PMMA measurement chip via a covalent bond. The amount by which resonance signals (RU value) obtained before the addition of trypsin and after washing it had changed was defined as the immobilized amount of trypsin (RU value).
A leupeptin solution (0.002 mM, HBS-N buffer) was added to a measurement chip, followed by reaction for 10 minutes. The amount by which resonance signals (RU value) had changed was defined as the amount of leupeptin (manufactured by ICN) binding to trypsin.

Assay [5] deals with T1, Trypsin. The assay is described as follows: Enzyme activity of trypsin on PMMA chip with Bz-Arg-MCA, fluorescence (Example 5). Type of assay: biochemical. The following applies: leupeptin 0.002 mM, 0.1 mM Bz-Arg-MCA. As for the experimental part: Using the PMMA chip after the measurement of the amount of leupeptin binding to trypsin in (2) above, the enzyme activity of trypsin was measured. Specifically, a substrate specific to trypsin (benzoyl-L-arginine-4-methylcoumarin-7-amide (hereinafter referred to as Bz-Arg-MCA); Peptide Institute, Inc.) was allowed to react with trypsin, and fluorescence in the decomposed product was measured.
The inside of the PMMA measurement chip was washed with an HBS-N buffer. Thereafter, a leupeptin solution (0.002 mM, HBS-N buffer) and 0.1 mM Bz-Arg-MCA were added thereto. The reaction was then carried out for 10, 30, 60, and 120 minutes.
as §2

Assay [6] has as its target T1, Trypsin. The assay is described as follows: Selection of compounds due to biological activity: trypsin enzyme activity with Bz-Arg-MCA, fluorescence (Example 7). The class given is biochemical. As for the experimental part:
as §1
Thereafter, the reaction was then carried out for 10, 30, 60, and 120 minutes.
as §2

On to `CC(C)C[C@H](NC(=O)[C@@H](NC(=O)N[C@@H](Cc1ccccc1)C(=O)O)[C@@H]1CCN=C(N)N1)C(=O)N[C@H](C=O)Cc1ccccc1` [Chymostatin], for which, at Trypsin [1], the “Bond of substance interacting with trypsin (RU)” value stood at 0 RU and the “Binding to trypsin (in words)” value was “did not bind to trypsin”. Further, on Trypsin [2], the “Binding amount (RU)” value turned out to be 0 RU. On Trypsin [3], the “Measurement results of fluorescence intensity (120 minutes)” value was 576 and the “Inhibitory action on the enzyme activity of trypsin (in words)” value was “no inhibitory action on the enzyme activity of trypsin was observed”.

Regarding `CC(=O)N[C@@H](CC(C)C)C(=O)N[C@@H](CC(C)C)C(=O)N[C@H](C=O)CCCNC(=N)N` [Leupeptin], on Trypsin [1], the “Bond of substance interacting with trypsin (RU)” value turned out to be 22 RU and the “Binding to trypsin (in words)” value is “bound to the enzyme activity site of trypsin”. Also, at Trypsin [4], the “Binding amount of substance interacting with trypsin, compared with CM5 cup” value was “equivalent to the values obtained with CM5 cup”. In addition, at Trypsin [2] (Example 6 (3)), the “Binding observed, selection of compounds (in words)” value is recorded as “the binding of which were observed, were selected”. The “Binding amount (RU)” value on Trypsin [2] worked out at 23 RU. Further, the “Selection due to binding amount” value on Trypsin [2] (symbols ◯ / X, key not given) was “◯”. For the same compound, the “Fluorescence intensity, compared with CM5 cup” value on Trypsin [5] is listed as “equivalent to the values obtained with CM5 cup”. Moreover, the “Measurement value of fluorescence intensity” value at Trypsin [6] (4 μM compound solution mixed 1:1 with 0.2 mM Bz-Arg-MCA, reaction time of the value not given, no compound: 594) is 3. For the same compound, the “Inhibition of the enzyme activity of trypsin, selection of compounds (in words)” value at Trypsin [6] (Example 7 (3)) is “inhibited the enzyme activity of trypsin”. The “Selection due to enzyme activity” value at Trypsin [6] (symbols ◯ / X, key not given) was “◯”. In addition, at Trypsin [3], the “Measurement results of fluorescence intensity (120 minutes)” value came out at 2 and the “Inhibitory action on the enzyme activity of trypsin (in words)” value is given as “inhibiting the enzyme activity”.
